Source: US20120046273A1, “COMPOUNDS AND COMPOSITIONS FOR COGNITION-ENHANCEMENT, METHODS OF MAKING, AND METHODS OF TREATING” (MITHRIDION, INC., priority 2009, published 2012)

Experiments:
[1] = biological target: T1, human muscarinic M1 receptors (Homo sapiens, UniProt P11229); assay: Inositol phosphate production in huM1/A9L cells (IPOne TR-FRET); type: cell-based
T1 construct: expressed in transfected cells; host or cells: A9L cells (gift from Professor W Messer)
T1 sequence (P11229 1-460): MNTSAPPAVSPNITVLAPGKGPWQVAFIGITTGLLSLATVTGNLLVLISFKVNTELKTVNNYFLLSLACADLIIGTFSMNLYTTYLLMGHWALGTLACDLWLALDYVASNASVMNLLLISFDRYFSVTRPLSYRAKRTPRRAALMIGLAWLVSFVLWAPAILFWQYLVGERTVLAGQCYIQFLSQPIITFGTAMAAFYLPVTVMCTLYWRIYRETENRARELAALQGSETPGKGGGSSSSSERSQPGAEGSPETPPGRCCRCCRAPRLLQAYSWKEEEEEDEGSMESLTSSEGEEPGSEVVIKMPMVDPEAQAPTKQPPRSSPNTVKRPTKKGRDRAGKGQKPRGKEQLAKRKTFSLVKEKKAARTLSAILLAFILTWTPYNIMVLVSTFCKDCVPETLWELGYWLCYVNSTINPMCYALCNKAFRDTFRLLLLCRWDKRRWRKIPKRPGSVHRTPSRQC
Protocol: (§1) Muscarinic M1 and M3 agonist activity was evaluated by measuring the stimulation of inositol phosphate (IP) production in the presence of lithium chloride from A9L cells transfected with expression plasmids containing human muscarinic M1 and M3 receptors, respectively. The cell lines were a gift from Professor W Messer, and the methods were as described in Tejada F R et al. J. Med. Chem. 2006; 49: 7518-31 except that the assay was scaled down to run in 384 well plates, and IP was measured in the cell lysates using the non-isotopic IPOne TR-FRET assay (CIS-BIO, Inc).
(§2) Cells were grown to 90% confluence in 384 well hi-base plates (Greiner Bio-One), compounds were added at suitable concentrations in growth medium containing 10 mM LiCL, buffered with an extra 10 mM HEPES (pH7.4), and incubated for 60 minutes at 37° C. Cells were lysed and assayed for IP following the manufacturer's instructions.
(§3) The value for a full agonist is 100%, while partial agonists give values below 100%.

[2] = biological target: T2, human muscarinic M3 receptors (Homo sapiens, UniProt P20309); assay: Inositol phosphate production in huM3/A9L cells (IPOne TR-FRET); type: cell-based
T2 construct: expressed in transfected cells; host or cells: A9L cells (gift from Professor W Messer)
T2 sequence (P20309 whole entry): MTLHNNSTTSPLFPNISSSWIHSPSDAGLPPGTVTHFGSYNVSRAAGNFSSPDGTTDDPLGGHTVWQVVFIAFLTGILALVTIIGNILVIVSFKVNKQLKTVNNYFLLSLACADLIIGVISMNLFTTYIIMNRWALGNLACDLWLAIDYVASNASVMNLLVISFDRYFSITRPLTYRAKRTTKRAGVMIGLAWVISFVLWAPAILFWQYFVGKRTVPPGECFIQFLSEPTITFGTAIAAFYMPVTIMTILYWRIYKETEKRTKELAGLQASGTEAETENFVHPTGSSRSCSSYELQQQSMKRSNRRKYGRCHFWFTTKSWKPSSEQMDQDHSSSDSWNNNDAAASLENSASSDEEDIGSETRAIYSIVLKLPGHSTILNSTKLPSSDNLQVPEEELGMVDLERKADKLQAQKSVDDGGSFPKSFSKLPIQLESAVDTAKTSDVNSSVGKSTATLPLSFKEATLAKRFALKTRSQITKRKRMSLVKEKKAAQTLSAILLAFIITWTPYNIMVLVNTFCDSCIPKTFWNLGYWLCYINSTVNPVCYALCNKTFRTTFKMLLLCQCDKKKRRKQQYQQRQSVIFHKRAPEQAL
Protocol: as §1, §2, §3

[3] = tested on: A-beta 1-40 and A-beta 1-42; assay: A-beta in hippocampal microdialysate; type: in vivo, Tg-2576 transgenic mice; conditions: Tg-2576 mice
Description: These mice have high concentrations of A-beta in their brain tissue, thought to be the cause of neuron death in Alzheimer's disease, and accumulate amyloid plaques, recapitulating one of the hallmark pathological features of Alzheimer's disease.

[4] = rat, in vivo, po, 1 hour
in vivo = conditions: rat, po
[5] = percentage of maximal stimulation by carbachol

## Cc1noc(C2CCCNC2)n1 (racemic) [Compound 82, 3-Methyl-5-(piperidin-3-yl)-1,2,4-oxadiazole]
[1]; [5]
  huM1/A9L Smax: 108%
[1]; potency relative to carbachol
  huM1/A9L ED50 relative to CCh: + (potency 2-10x CCh)
[2]; [5]
  huM3/A9L Smax: 54%
[2]; potency relative to carbachol
  huM3/A9L ED50 relative to CCh: +/− (potency 0.5-2x CCh)
[3]
  reduction of the concentration of A-beta 1-40: approximately 40%
  reduction of the concentration of A-beta 1-42: approximately 40%
[4]
  Brain/plasma ratio: 2.38
In vivo
  Kp at 1 hour: 2.38
